In patent US20250197394A1, “ANTIBACTERIALS BASED ON MONOCYCLIC FRAGMENTS COUPLED TO AMINOPIPERIDINE NAPHTHYRIDINE SCAFFOLD” (UNIVERZA V LJUBLJANI, priority 2019, published 2025):
In brackets after ≈: the same amount, converted by molar mass.

Experiments:
[1] = target: T1, Escherichia coli DNA gyrase (Escherichia coli, UniProt P0AES4+P0AES6); experiment: Gyrase Supercoiling High Throughput Plate assay (E. coli); type: biochemical; conditions: mean of two to four independent measurements
T1 construct: purchased Inspiralis (Norwich, UK)

[2] = test system: methicillin-resistant Staphylococcus schleiferi subspecies coagulans; experiment: MIC broth microdilution, MRSS; type: cell-based; conditions: 20 hours of incubation
Description: (§1) Minimal inhibitory concentrations were determined by the broth microdilution method in 96-wells plate format following the Clinical and Laboratory Standards Institute (CLSI) guidelines given in “Methods for Dilution Antimicrobial Susceptibility Tests for Bacteria That Grow Aerobically, Approved Standard, 10th Edition, CLSI document M07-A10, Wayne, PA: Clinical and Laboratory Standards Institute, USA, 2015” and European Committee on Antimicrobial Susceptibility Testing (EUCAST) recommendations given in “The European Committee on Antimicrobial Susceptibility Testing, Breakpoint tables for interpretation of MICs and zone diameters, Version 5.0, 2015”. All exemplified compounds were tested on several Gram-positive (S. aureus, methicillin-resistant Staphylococcus aureus (MRSA), methicillin-resistant
(§2) Staphylococcus schleiferi subspecies coagulans, methicillin-resistant Staphylococcus pseudintermedius
(§3) (S-48, S-84, S-35, S-52, S-40 and S-51), Streptococcus agalactiae and Enterococcus faecalis) and Gram-negative bacteria (E. coli, Salmonella Alachua and Pseudomonas aeruginosa).
(§4) The MICs were visually determined as the lowest compound concentration inhibiting bacterial growth after 20 hours of incubation time. […] MIC values are represented in Table 2.

[3] = test system: methicillin-resistant Staphylococcus pseudintermedius S-84; experiment: MIC broth microdilution, MRSP S-84; type: cell-based; conditions: 20 hours of incubation
Description: as §1, §2, §3, §4

[4] = test system: methicillin-resistant Staphylococcus pseudintermedius S-48; experiment: MIC broth microdilution, MRSP S-48; type: cell-based; conditions: 20 hours of incubation
Description: as §1, §2, §3, §4

[5] = test system: methicillin-resistant Staphylococcus pseudintermedius S-35; experiment: MIC broth microdilution, MRSP S-35; type: cell-based; conditions: 20 hours of incubation
Description: as §1, §2, §3, §4

[6] = test system: methicillin-resistant Staphylococcus pseudintermedius S-52; experiment: MIC broth microdilution, MRSP S-52; type: cell-based; conditions: 20 hours of incubation
Description: as §1, §2, §3, §4

[7] = test system: methicillin-resistant Staphylococcus pseudintermedius S-40; experiment: MIC broth microdilution, MRSP S-40; type: cell-based; conditions: 20 hours of incubation
Description: as §1, §2, §3, §4

[8] = test system: methicillin-resistant Staphylococcus pseudintermedius S-51; experiment: MIC broth microdilution, MRSP S-51; type: cell-based; conditions: 20 hours of incubation
Description: as §1, §2, §3, §4

E. faecalis DRK 057 = experiment: MIC broth microdilution, E. faecalis; type: cell-based; conditions: Enterococcus faecalis, DRK057, 20 hours of incubation
Description: as §1, §2, §3, §4

P. aeruginosa RDK 184 = experiment: MIC broth microdilution, P. aeruginosa; type: cell-based; conditions: Pseudomonas aeruginosa, RDK184, 20 hours of incubation
Description: as §1, §2, §3, §4

C. jejuni RDK-135 = experiment: MIC broth microdilution, C. jejuni; type: cell-based; conditions: Campylobacter jejuni, RDK135, 20 hours of incubation
Description: as §1, §4

HUVEC (ATCC) cell line = experiment: Cytotoxicity, metabolic cell activity (CellTiter 96 AQueous One), HUVEC; type: cell-based; conditions: two independent experiments; for mean percentage of metabolic activity of treated cells, HUVEC 1 μM: compound 1 μM; for mean percentage of metabolic activity of treated cells, HUVEC 50 μM: compound 50 μM
Description: (§5) Cytotoxicity was assessed in assay measuring metabolic cell activity performed on HepG2 (ATCC) and HUVEC (ATCC) cell lines according to the protocol of CellTiter 96® AQueous One Solution Cell Proliferation Assay 2018, Promega, USA, 2001. The method involved absorbance measurements after the treatment of cells with compounds at concentrations 1 μM and 50 μM.
(§6) The results are given as the mean percentage of metabolic activity of treated cells from two independent experiments and are represented in Table 3.

HepG2 (ATCC) cell line = experiment: Cytotoxicity, metabolic cell activity (CellTiter 96 AQueous One), HepG2; type: cell-based; conditions: two independent experiments; for mean percentage of metabolic activity of treated cells, HepG2 1 μM: HepG2, compound 1 μM; for mean percentage of metabolic activity of treated cells, HepG2 50 μM: HepG2, compound 50 μM
Description: as §5, §6

[9] = target: Staphylococcus aureus DNA gyrase (Staphylococcus aureus, UniProt P0A0K8+P20831); experiment: biochemical
Staphylococcus aureus DNA gyrase, sequence (P20831 whole entry): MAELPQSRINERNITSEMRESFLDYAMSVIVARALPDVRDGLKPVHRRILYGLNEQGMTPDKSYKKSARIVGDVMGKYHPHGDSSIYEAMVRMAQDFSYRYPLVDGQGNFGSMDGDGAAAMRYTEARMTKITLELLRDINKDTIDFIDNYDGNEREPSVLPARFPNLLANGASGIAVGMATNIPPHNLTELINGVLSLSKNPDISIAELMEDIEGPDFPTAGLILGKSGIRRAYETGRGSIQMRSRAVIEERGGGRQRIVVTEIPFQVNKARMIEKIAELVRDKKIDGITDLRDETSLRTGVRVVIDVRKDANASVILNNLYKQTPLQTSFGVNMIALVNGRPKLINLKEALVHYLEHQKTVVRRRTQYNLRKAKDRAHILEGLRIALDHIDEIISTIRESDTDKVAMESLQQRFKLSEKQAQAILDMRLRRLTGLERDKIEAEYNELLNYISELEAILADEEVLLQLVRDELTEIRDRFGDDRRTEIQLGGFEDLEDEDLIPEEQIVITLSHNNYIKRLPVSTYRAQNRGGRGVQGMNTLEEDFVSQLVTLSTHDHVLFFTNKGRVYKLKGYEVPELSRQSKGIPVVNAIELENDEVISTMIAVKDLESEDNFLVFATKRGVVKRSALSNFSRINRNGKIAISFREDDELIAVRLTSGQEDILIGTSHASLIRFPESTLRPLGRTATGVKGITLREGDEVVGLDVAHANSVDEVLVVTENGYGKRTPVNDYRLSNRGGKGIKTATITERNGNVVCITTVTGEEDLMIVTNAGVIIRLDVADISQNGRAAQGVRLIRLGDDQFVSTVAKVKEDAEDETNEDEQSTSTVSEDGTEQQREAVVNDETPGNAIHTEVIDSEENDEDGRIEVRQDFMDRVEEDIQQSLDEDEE
Staphylococcus aureus DNA gyrase, sequence (P0A0K8 whole entry): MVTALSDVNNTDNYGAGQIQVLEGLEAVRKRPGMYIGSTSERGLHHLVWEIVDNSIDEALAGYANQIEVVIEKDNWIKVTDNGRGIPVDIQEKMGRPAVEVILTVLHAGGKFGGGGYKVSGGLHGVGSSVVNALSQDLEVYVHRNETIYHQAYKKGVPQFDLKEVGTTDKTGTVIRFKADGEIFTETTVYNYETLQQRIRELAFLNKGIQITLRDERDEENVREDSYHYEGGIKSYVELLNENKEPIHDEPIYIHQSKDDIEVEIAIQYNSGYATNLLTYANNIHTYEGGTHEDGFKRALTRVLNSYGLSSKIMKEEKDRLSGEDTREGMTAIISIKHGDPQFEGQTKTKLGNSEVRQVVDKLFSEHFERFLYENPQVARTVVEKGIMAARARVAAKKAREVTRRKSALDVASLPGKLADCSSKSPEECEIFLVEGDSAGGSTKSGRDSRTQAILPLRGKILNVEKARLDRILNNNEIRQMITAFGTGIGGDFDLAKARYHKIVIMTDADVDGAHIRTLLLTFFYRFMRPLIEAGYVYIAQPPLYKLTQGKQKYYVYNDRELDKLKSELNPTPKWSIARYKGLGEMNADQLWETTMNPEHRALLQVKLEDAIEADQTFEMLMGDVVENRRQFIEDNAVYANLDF

T1 sequence (P0AES4 whole entry, one chain of several): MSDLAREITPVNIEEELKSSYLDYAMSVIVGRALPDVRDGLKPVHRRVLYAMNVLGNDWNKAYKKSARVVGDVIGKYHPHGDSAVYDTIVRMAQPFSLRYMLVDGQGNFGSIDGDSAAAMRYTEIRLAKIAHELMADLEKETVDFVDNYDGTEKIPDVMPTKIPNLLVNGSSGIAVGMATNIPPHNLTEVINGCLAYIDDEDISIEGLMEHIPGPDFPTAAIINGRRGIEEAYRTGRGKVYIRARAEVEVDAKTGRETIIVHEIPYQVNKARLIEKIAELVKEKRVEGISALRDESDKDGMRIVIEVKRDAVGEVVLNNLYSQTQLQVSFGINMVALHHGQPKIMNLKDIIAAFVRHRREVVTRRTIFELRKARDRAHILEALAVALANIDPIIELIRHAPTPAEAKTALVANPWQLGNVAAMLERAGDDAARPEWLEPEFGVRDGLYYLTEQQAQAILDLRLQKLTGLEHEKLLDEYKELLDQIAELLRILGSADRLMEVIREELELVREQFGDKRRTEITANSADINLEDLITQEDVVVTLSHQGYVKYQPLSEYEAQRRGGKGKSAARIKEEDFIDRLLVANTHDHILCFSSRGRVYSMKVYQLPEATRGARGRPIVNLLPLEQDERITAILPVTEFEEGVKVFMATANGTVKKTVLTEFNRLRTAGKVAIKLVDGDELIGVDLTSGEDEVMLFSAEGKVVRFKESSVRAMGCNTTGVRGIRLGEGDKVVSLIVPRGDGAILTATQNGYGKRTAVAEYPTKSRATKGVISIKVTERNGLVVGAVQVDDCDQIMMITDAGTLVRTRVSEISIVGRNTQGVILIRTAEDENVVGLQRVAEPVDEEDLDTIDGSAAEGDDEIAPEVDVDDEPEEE

| Structure (SMILES) | IC50 [1] [µM] | MIC [2] [mg/L] | MIC [3] [mg/L] | MIC [4] [mg/L] | MIC [5] [mg/L] | MIC [6] [mg/L] | MIC [7] [mg/L] | MIC [8] [mg/L] | MIC (E. faecalis DRK 057) [mg/L] | MIC (P. aeruginosa RDK 184) [mg/L] | MIC (C. jejuni RDK-135) [mg/L] | mean percentage of metabolic activity of treated cells, HUVEC 1 μM (HUVEC (ATCC) cell line) [%] | mean percentage of metabolic activity of treated cells, HUVEC 50 μM (HUVEC (ATCC) cell line) [%] | mean percentage of metabolic activity of treated cells, HepG2 1 μM (HepG2 (ATCC) cell line) [%] | mean percentage of metabolic activity of treated cells, HepG2 50 μM (HepG2 (ATCC) cell line) [%] | IC50 [9] [µM] |
| --- | --- | --- | --- | --- | --- | --- | --- | --- | --- | --- | --- | --- | --- | --- | --- | --- |
| COc1ccc2nccc(CCN3CCC(NCc4ccccc4)CC3)c2n1 [Compound C1, N-benzyl-1-(2-(6-methoxy-1,5-naphthyridin-4-yl)ethyl)piperidin-4-amine] | 40.6 | 0.25 (≈ 0.664 µM) | 4 (≈ 10.6 µM) | 4 (≈ 10.6 µM) | 4 (≈ 10.6 µM) | 16 (≈ 42.5 µM) | 4 (≈ 10.6 µM) | 4 (≈ 10.6 µM) | 16 (≈ 42.5 µM) | > 128 | 32 (≈ 85 µM) | 92.9 ± 16.6 | 63.4 ± 11.3 | 107.1 ± 7.2 | 1.4 ± 0.3 | 1.02 |
| COc1ccc2nccc(CCN3CCC(NCc4ccc(CO)cc4)CC3)c2n1 [Compound C2, (4-((1-(2-(6-methoxy-1,5-naphthyridin-4-yl)ethyl)piperidin-4-ylamino)methyl)phenyl)methanol] | 56.6 | 0.25 (≈ 0.615 µM) | 4 (≈ 9.84 µM) | 4 (≈ 9.84 µM) | 4 (≈ 9.84 µM) | 8 (≈ 19.7 µM) | 4 (≈ 9.84 µM) | 4 (≈ 9.84 µM) | 8 (≈ 19.7 µM) | > 128 | 32 (≈ 78.7 µM) | 97.7 ± 9.4 | 63.1 ± 2.1 | 100.2 ± 1.5 | 24.1 ± 0.9 | 4.39 |
| COc1ccc2nccc(CCN3CCC(NCc4ccc(C(N)=O)cc4)CC3)c2n1 [Compound C3, 4-((1-(2-(6-methoxy-1,5-naphthyridin-4-yl)ethyl)piperidin-4-ylamino)methyl) benzamide] | > 100 | 0.25 (≈ 0.596 µM) | 4 (≈ 9.53 µM) | 4 (≈ 9.53 µM) | 4 (≈ 9.53 µM) | 8 (≈ 19.1 µM) | 4 (≈ 9.53 µM) | 4 (≈ 9.53 µM) | 128 (≈ 305 µM) | > 128 | 128 (≈ 305 µM) | 105.8 ± 3.5 | 66.1 ± 3.5 | 94.0 ± 0.8 | 48.3 ± 1.0 | 1.82 |
| COc1ccc2nccc(CCN3CCC(NCc4ccc(F)cc4)CC3)c2n1 [Compound C5, N-(4-fluorobenzyl)-1-(2-(6-methoxy-1,5-naphthyridin-4-yl)ethyl)piperidin-4-amine] | 17 | 0.125 (≈ 0.317 µM) | 2 (≈ 5.07 µM) | 2 (≈ 5.07 µM) | 2 (≈ 5.07 µM) | 8 (≈ 20.3 µM) | 2 (≈ 5.07 µM) | 2 (≈ 5.07 µM) | 8 (≈ 20.3 µM) | > 128 | 1 (≈ 2.53 µM) | 105.2 ± 15.1 | 75.6 ± 12.0 | 98.0 ± 3.9 | −1.3 ± 2.2 | 0.55 |
| COc1ccc2nccc(CCN3CCC(NCc4ccc(Br)cc4)CC3)c2n1 [Compound C7, N-(4-bromobenzyl)-1-(2-(6-methoxy-1,5-naphthyridin-4-yl)ethyl)piperidin-4-amine] | – | ≤ 0.0078 | 0.062 (≈ 0.136 µM) | 0.062 (≈ 0.136 µM) | 0.062 (≈ 0.136 µM) | 0.125 (≈ 0.274 µM) | 0.031 (≈ 0.0681 µM) | 0.062 (≈ 0.136 µM) | 1 (≈ 2.2 µM) | 128 (≈ 281 µM) | 0.5 (≈ 1.1 µM) | 92.0 ± 4.5 | −0.5 ± 0.2 | 84.3 ± 8.9 | −0.1 ± 0.3 | 0.007 |
